Laboratory results taken from patent US20250144186A1, “NOVEL THERAPEUTIC USES OF GARDNERELLA ENDOLYSINS” (priority 2022, published 2025).
Values after ≈ are worked out from the molar mass of the structure shown. Values joined by “and” are separate entries in the source; they are usually repeats but may differ in a detail not shown here. Identical values can stand only once. Like-named read-outs stand apart in the source and are kept apart here.

Legend:
[1] = tested on: passaged G. swidsinskii biofilm; test: MBEC on biofilms of passaged strains; format: cell-based, Gardnerella swidsinskii
Method: (§1) Gardnerella spp. (see figures for strain specification) was resuspended in brain heart infusion broth supplemented with 2% (w/v) gelatin, 0.5% yeast extract (w/v), 0.1% starch (w/v) and 0.25% glucose (w/v) (sBHIG). Passaged strains were resuspended in unbuffered NYCB supplemented with 1% glucose (w/v) (sNYCB). The OD600 was set to 0.1 (approx. 10^7-10^8 CFU/mL) and the cell suspension was diluted 1:10 in growth medium as input for biofilm formation. A total of 200 μL of the respective bacterial suspensions was added to 96-well flat bottom plates (tissue-culture treated, Sigma-Aldrich). The biofilms were grown under anaerobic conditions at 37° C. for 40 to 72 hours, depending on the isolate. Subsequently, the supernatant was removed, and the biofilm was treated with antimicrobials dissolved in sBHIG (at pH 5 for treatment with PM-477 (H2B10), and unbuffered for treatment with antibiotics) in 100 μL and incubated anaerobically at 37° C. for another 24 hours. After the treatment, the biofilms were washed twice with 200 μL 1x PBS and dissolved by vigorous pipetting (40x up and down). Serial dilutions of the dissolved cells were spotted on chocolate agar plates. The plates were incubated anaerobically for two to three days and the minimum biofilm eradication concentration (MBEC) of the endolysin or the antibiotics in use were calculated.
(§2) All MICs determined after 48 h of incubation.

passaged G. swidsinskii = test: MIC on strains passaged with MDZ-OH; format: cell-based, Gardnerella swidsinskii; conditions: Gardnerella swidsinskii, 48 h
Method: (§3) The minimum inhibitory concentration (MIC), which is a standard measure of the activity of antimicrobials, was determined according to the Clinical and Laboratory Standards Institute protocol (2018) Methods for Antimicrobial Susceptibility Testing of Anaerobic Bacteria (Carpenter et al., 2018). […] Controls for growth in the absence of antimicrobials were also included. OD600 was recorded by a microplate reader (Tecan, Grodig, Austria) after incubation at 37° C. for 48 h or, for some fast-growing strains, after incubation for 24 h. Absence of growth was defined as OD600≤0.14. […] MIC readout and MBC99.5 spotting were performed after 72 h incubation for H2B10B11. MBC99.5 is the minimum concentration of an antibacterial agent that results in bacterial death of all cells in suspension up to a defined limit of detection, resulting in killing of at least 99.5% of bacteria.
(§4) The final volume of the reaction was 100 µL and the reactions were performed in triplicate in 384-well plates. The OD600 was measured using a microplate reader (Tecan, Grodig, Austria) to generate timepoint 0 h baseline values. The reactions were incubated anaerobically for 24 h, then the OD600 was measured again, and the MIC was measured as the lowest concentration with OD600<0.14. […] This process was repeated for a maximum of 25 rounds. In each round, the input CFU/mL was determined by quantitative plating.
(§5) The susceptibility of Gardnerella strains before and after 8 to 9-times passaging with sub-MIC concentrations of MZD or MDZ-OH is shown in Table 4 below. All MICs determined after 48 h of incubation.

passaged G. piotii = test: MIC on strains passaged with MDZ-OH; format: cell-based, Gardnerella piotii; conditions: Gardnerella piotii, 48 h, read-out: MIC passaged
Method: as §3
The final volume of the reaction was 100 µL and the reactions were performed in triplicate in 384-well plates. The OD600 was measured using a microplate reader (Tecan, Grodig, Austria) to generate timepoint 0 h baseline values. […] In each round, the input CFU/mL was determined by quantitative plating.
as §5

[2] = tested on: MDZ or MDZ-OH passaged Gardnerella strains grown as biofilm; test: MBEC on biofilms of the six passaged strains, summary; format: cell-based, Gardnerella spp.
Method: as §1

All Gardnerella = test: MIC assessment in suspension, panel of 22 strains; format: cell-based, Gardnerella spp.; conditions: for MIC90: N=22 strains
Method: as §3, with “H2B10B11.” for “H2B10B11. MBC99.5 is the minimum concentration of an antibacterial agent that results in bacterial death of all cells in suspension up to a defined limit of detection, resulting in killing of at least 99.5% of bacteria.”
(§6) However, topical intravaginal antibiotic administration is recommended for BV therapy, which allows to reach concentrations of active ingredients in the mg/mL range. […] Abbreviations: n.d., not determined; SJHB, St. Jan Hospital Bruges.
(§7) MIC90 is defined as the MIC value for 90% of the tested strains. For PM-477 (H2B10), the resistance breakpoint is not defined, therefore a “% resistant” is not defined (n.d.).

Gardnerella vaginalis = test: microbe, parasite or virus in culture; format: cell-based; conditions: Gardnerella vaginalis
Method: as §3, with “H2B10B11.” for “H2B10B11. MBC99.5 is the minimum concentration of an antibacterial agent that results in bacterial death of all cells in suspension up to a defined limit of detection, resulting in killing of at least 99.5% of bacteria.”
as §6, §7

Gardnerella swidsinskii = test: microbe, parasite or virus in culture; format: cell-based
Method: as §3, with “H2B10B11.” for “H2B10B11. MBC99.5 is the minimum concentration of an antibacterial agent that results in bacterial death of all cells in suspension up to a defined limit of detection, resulting in killing of at least 99.5% of bacteria.”
as §6, §7

[3] = tested on: passaged G. piotii biofilm; test: MBEC on biofilms of passaged strains; format: cell-based, Gardnerella piotii; conditions: G. piotii (UGent 18.01T) passaged with MDZ-OH
Method: as §1, §2

passaged G. vaginalis = test: MIC on strains passaged with MDZ or MDZ-OH; format: cell-based, Gardnerella vaginalis; conditions: Gardnerella vaginalis, 48 h
Method: as §3, §4, §5

## Cc1ncc([N+](=O)[O-])n1CCO [MDZ, metronidazole]
[1]; G. swidsinskii (GS 9838-1T) passaged with MDZ-OH
  MBEC passaged: >2048 µg/mL
[1]; G. swidsinskii (UGent BV 7.1) passaged with MDZ-OH
  MBEC passaged: >2048 µg/mL
Passaged G. swidsinskii; read-out: MIC passaged, G. swidsinskii (GS 9838-1T) passaged with MDZ-OH, 48 h incubation
  MIC: > 512 µg/mL
Passaged G. swidsinskii; read-out: MIC passaged, G. swidsinskii (UGent BV 7.1) passaged with MDZ-OH, 48 h incubation
  MIC: > 2050 µg/mL
Passaged G. piotii
  MIC: > 2050 µg/mL
[2]; 72 h pre-formed biofilms treated for 24 h
  Susceptibility of MDZ-passaged strains grown as biofilm (FIG. 4): resistant
[2]; six strains passaged on MDZ or MDZ-OH, pre-formed biofilms, 24 h treatment
  MBEC, range over passaged strains: > 2048 µg/mL
All Gardnerella; N=22, resistance ≥32 μg/mL MDZ
  N resistant (%): 59% and 60%
All Gardnerella; N=22, resistance ≥32 μg/mL MDZ, ≥8 μg/mL CLI
  N resistant: 13
All Gardnerella
  MIC90: >256 µg/mL
All Gardnerella; read-out: MIC90
  MIC90: > 256 µg/mL
Gardnerella vaginalis
  MIC90: 64 µg/mL (≈ 374 µM)
Gardnerella vaginalis; 48 h, read-out: MIC before passaging, G. vaginalis (ATCC 14018T), 48 h incubation
  MIC: 8 µg/mL (≈ 46.7 µM)
Gardnerella vaginalis; 48 h, read-out: MIC before passaging, G. vaginalis (UGent 09.07), 48 h incubation
  MIC: 64 µg/mL (≈ 374 µM)
Gardnerella vaginalis; 48 h, read-out: MIC before passaging, G. vaginalis (UGent BV50), 48 h incubation
  MIC: 32 µg/mL (≈ 187 µM)
Gardnerella vaginalis; ATCC14018, 24 h, read-out: MBC99.5, G. vaginalis (Gv9) ATCC 14018(T), reduces CFU by 99.5% within 24 h
  MBC: 16 µg/mL (≈ 93.5 µM)
Gardnerella vaginalis; ATCC14018, G. vaginalis (Gv9) ATCC 14018(T), suspension
  MIC: 8 µg/mL (≈ 46.7 µM)
Gardnerella vaginalis; G. vaginalis (BV50) UGent BV50.1, suspension
  MIC: 32 µg/mL (≈ 187 µM)
Gardnerella vaginalis; G. vaginalis (FB049) UGent FB049-01, suspension
  MIC: 16 µg/mL (≈ 93.5 µM)
Gardnerella vaginalis; G. vaginalis (FB061) UGent FB061-03, suspension, read-out: MIC
  MIC: 8 µg/mL (≈ 46.7 µM)
Gardnerella vaginalis; G. vaginalis (FB061) UGent FB061-03, read-out: MBC99.5
  MBC: 32 µg/mL (≈ 187 µM)
Gardnerella vaginalis; G. vaginalis (Gv1) UGent 09.07, suspension, read-out: MIC
  MIC: 64 µg/mL (≈ 374 µM)
Gardnerella vaginalis; G. vaginalis (Gv1) UGent 09.07, read-out: MBC99.5
  MBC: 512 µg/mL (≈ 2990 µM)
Gardnerella vaginalis; G. vaginalis (Gv5) UGent 09.01, suspension, read-out: MIC
  MIC: 8 µg/mL (≈ 46.7 µM)
Gardnerella vaginalis; G. vaginalis (Gv5) UGent 09.01, read-out: MBC99.5
  MBC: 512 µg/mL (≈ 2990 µM)
Gardnerella vaginalis; G. vaginalis (Gv8) UGent 25.49, suspension, read-out: MIC
  MIC: 8 µg/mL (≈ 46.7 µM)
Gardnerella vaginalis; G. vaginalis (Gv8) UGent 25.49, read-out: MBC99.5
  MBC: 32 µg/mL (≈ 187 µM)
Gardnerella vaginalis; N=8 strains
  MIC Range: 8 to 64 µg/mL
Gardnerella vaginalis; read-out: MBC99.5, G. vaginalis (BV111) UGent BV111.5
  MBC: 64 µg/mL (≈ 374 µM)
Gardnerella vaginalis; read-out: MBC99.5, G. vaginalis (FB049) UGent FB049-01
  MBC: 64 µg/mL (≈ 374 µM)
Gardnerella swidsinskii; G. swidsinskii (BV7) UGent BV7.1
  MBC99.5: >512 µg/mL
Gardnerella swidsinskii; Gardnerella swidsinskii
  MIC90: > 256 µg/mL
Gardnerella swidsinskii; Gardnerella swidsinskii, 48 h, read-out: MIC before passaging, G. swidsinskii (GS 9838-1T), 48 h incubation
  MIC: 256 µg/mL (≈ 1500 µM)
Gardnerella swidsinskii; Gardnerella swidsinskii, 48 h, read-out: MIC before passaging, G. swidsinskii (UGent BV 7.1), 48 h incubation
  MIC: 256 µg/mL (≈ 1500 µM)
Gardnerella swidsinskii; Gardnerella swidsinskii, G. swidsinskii (BV7) UGent BV7.1, suspension, read-out: MIC
  MIC: 256 µg/mL (≈ 1500 µM)
Gardnerella swidsinskii; Gardnerella swidsinskii, G. swidsinskii (BV139) UGent BV139.3, suspension, read-out: MIC
  MIC: 256 µg/mL (≈ 1500 µM)
Gardnerella swidsinskii; Gardnerella swidsinskii, G. swidsinskii (Gs23) GS 10234, suspension
  MIC: 64 µg/mL (≈ 374 µM)
Gardnerella swidsinskii; Gardnerella swidsinskii, G. swidsinskii (Gs24) GS 9838-1(T), suspension, read-out: MIC
  MIC: 256 µg/mL (≈ 1500 µM)
Gardnerella swidsinskii; Gardnerella swidsinskii, read-out: MBC99.5, G. swidsinskii (BV139) UGent BV139.3
  MBC: 256 µg/mL (≈ 1500 µM)
Gardnerella swidsinskii; Gardnerella swidsinskii, G. swidsinskii (Gs24) GS 9838-1(T), read-out: MBC99.5
  MBC: > 512 µg/mL
[3]
  MBEC passaged: >2048 µg/mL
Passaged G. vaginalis; read-out: MIC passaged, G. vaginalis (ATCC 14018T) passaged with sub-MIC MDZ, 48 h incubation
  MIC: > 512 µg/mL
Passaged G. vaginalis; read-out: MIC passaged, G. vaginalis (UGent 09.07) passaged 8 times with MDZ-OH, 48 h incubation
  MIC: > 2050 µg/mL
Passaged G. vaginalis; read-out: MIC passaged, G. vaginalis (UGent BV50) passaged with MDZ-OH, 48 h incubation
  MIC: > 2050 µg/mL
